Experimental data as given in patent US8846912B2, “Tartrate salts of quinazoline based EGFR inhibitors containing a zinc binding moiety” (Curis, Inc., priority 2007, dated 2014).

Biological target: HDAC
Experiment: HDAC fluorimetric enzyme assay (HeLa nuclear extract)
Assay type: biochemical
Experimental: HDAC inhibitors were screened using an HDAC fluorimetric assay kit (AK-500, Biomol, Plymouth Meeting, Pa.).
Each assay was setup as follows: Defrosted all kit components and kept on ice until use. […] Prepared dilutions of Trichostatin A (TSA, positive control) and tested compounds in assay buffer (5× of final concentration). Diluted Fluor de Lys™ Substrate in assay buffer to 100 uM (50 fold=2× final). Diluted Fluor de Lys™ developer concentrate 20-fold (e.g. 50 μl plus 950 μl Assay Buffer) in cold assay buffer. Second, diluted the 0.2 mM Trichostatin A 100-fold in the 1× Developer (e.g. 10 μl in 1 ml; final Trichostatin A concentration in the 1× Developer=2 μM; final concentration after addition to HDAC/Substrate reaction=1 μM). Added Assay buffer, diluted trichostatin A or test inhibitor to appropriate wells of the microtiter plate. Added diluted HeLa extract or other HDAC sample to all wells except for negative controls.

Row | Structure (SMILES) | IC50
1 | COc1cc2ncnc(N[C@H](C)c3ccccc3)c2cc1OCCCCCC(=O)NO [Compound 77, (R)—N-hydroxy-6-(7-methoxy-4-(1-phenylethylamino)quinazolin-6-yloxy)-hexanamide] | < 100 nM
2 | C#Cc1cccc(Nc2ncnc3cc(OC)c(NC(=O)CCCCCCC(=O)NO)cc23)c1 [Compound 44, N^1-(4-(3-ethynylphenylamino)-7-methoxyquinazolin-6-yl)-N^8-hydroxyoctanediamide] | < 100 nM
3 | O=C(/C=C/c1ccc(OCCOc2ccc3ncnc(Nc4ccc(F)c(Cl)c4)c3c2)cc1)NO [Compound 63] | 100 to 1000 nM
4 | C#Cc1cccc(Nc2ncnc3cc(OC)c(OCCCCC(=O)NO)cc23)c1 [Compound 10, 5-(4-(3-Ethynylphenylamino)-7-methoxyquinazolin-6-yloxy)-N-hydroxypentanamide] | 100 to 1000 nM
5 | COCCOc1cc2ncnc(Nc3ccc(F)c(Cl)c3)c2cc1NC(=O)CCCC(=O)NO [Compound 68, N^1-(4-(3-chloro-4-fluorophenylamino)-7-(2-methoxyethoxy)quinazolin-6-yl)-N^5-hydroxyglutaramide] | 1000 to 10000 nM
6 | COCCOc1cc2ncnc(Nc3ccc(F)c(Cl)c3)c2cc1OCCCCCCC(=O)NO [Compound 30, 7-(4-(3-Chloro-4-fluorophenylamino)-7-(2-methoxyethoxy)quinazolin-6-yloxy)-N-hydroxyheptanamide] | < 100 nM
7 | C#Cc1cccc(Nc2ncnc3cc(OC)c(OCCCCCC(=O)NO)cc23)c1 [Compound 11, 6-(4-(3-ethynylphenylamino)-7-methoxyquinazolin-6-yloxy)-N-hydroxyhexanamide] | < 100 nM
8 | COc1cc2ncnc(Nc3ccc(F)c(Cl)c3)c2cc1OCCOc1ccc(/C=C/C(=O)NO)cc1 [Compound 66, (E)-3-(4-(2-(4-(3-chloro-4-fluorophenylamino)-7-methoxyquinazolin-6-yloxy)ethoxy)phenyl)-N-hydroxyacrylamide] | 100 to 1000 nM
9 | COc1cc2ncnc(Nc3ccc(F)c(Cl)c3)c2cc1OCCC(=O)NO [Compound 2] | > 10000 nM
10 | C#Cc1cccc(Nc2ncnc3cc(OC)c(NC(=O)CCCC(=O)NO)cc23)c1 [Compound 42, N^1-(4-(3-ethynylphenylamino)-7-methoxyquinazolin-6-yl)-N^5-hydroxyglutaramide] | 100 to 1000 nM
11 | COc1cc2ncnc(N[C@H](C)c3ccc(F)cc3)c2cc1OCCCCCCC(=O)NO [Compound 81, (R)-7-(4-(1-(4-fluorophenyl)ethylamino)-7-methoxyquinazolin-6-yloxy)-N-hydroxyheptanamide] | 100 to 1000 nM
12 | C#Cc1cccc(Nc2ncnc3ccc(OCCCC(=O)NO)cc23)c1 [Compound 21, 4-(4-(3-ethynylphenylamino)quinazolin-6-yloxy)-N-hydroxybutanamide] | 1000 to 10000 nM
13 | COc1cc2ncnc(N[C@H](C)c3ccc(Cl)cc3)c2cc1OCCCCCCC(=O)NO [Compound 82, (R)-7-(4-(1-(4-Chlorophenyl)ethylamino)-7-methoxyquinazolin-6-yloxy)-N-hydroxyheptanamide] | 100 to 1000 nM
14 | COc1ccc([C@@H](C)Nc2ncnc3cc(OC)c(OCCCCCCC(=O)NO)cc23)cc1 [Compound 83, (R)—N-Hydroxy-7-(7-methoxy-4-(1-(4-methoxyphenyl)ethylamino)-quinazolin-6-yloxy)-heptanamide] | < 100 nM
15 | C#Cc1cccc(Nc2ncnc3ccc(OCC(=O)NO)cc23)c1 [Compound 19, 2-(4-(3-ethynylphenylamino)quinazolin-6-yloxy)-N-hydroxyacetamide] | > 10000 nM
16 | COc1cc2ncnc(Nc3ccc(F)c(Cl)c3)c2cc1OCCCCC(=O)NO [Compound 4] | 100 to 1000 nM
17 | O=C(CCCOc1ccc2ncnc(Nc3ccc(F)c(Cl)c3)c2c1)NO [Compound 15, 4-(4-(3-chloro-4-fluorophenylamino)quinazolin-6-yloxy)-N-Hydroxybutanamide] | < 100 nM
18 | C#Cc1cccc(CNc2ncnc3cc(OC)c(OCCCCCCC(=O)NO)cc23)c1 [Compound 90] | < 100 nM
19 | O=C(CCOc1ccc2ncnc(Nc3ccc(F)c(Cl)c3)c2c1)NO [Compound 14] | 1000 to 10000 nM
